Our source for the percent effect (mortality or growth inhibition), percent control (mortality, anti-feedant effect or growth inhibition) and mortality values is patent US10494366B2, “Pesticidally active amide heterocyclic derivatives with sulphur containing substituents” (Syngenta Participations AG, priority 2014, dated 2019).

Bounds are passed on as bounds.

What all share (format): in vivo
The test system of assay [1] is Plutella xylostella (diamond back moth). The assay can be described thus: Example B3: Plutella xylostella, treated artificial diet. The following applies: 120 h, application rate 200 ppm, L2 larvae, 5 days after infestation, read-out: effect in at least one of the two categories (mortality or growth inhibition). How it is done: 24-well microtiter plates with artificial diet were treated with aqueous test solutions prepared from 10,000 ppm DMSO stock solutions by pipetting. After drying, the plates were infested with L2 larvae (10 to 15 per well). The samples were assessed for mortality and growth inhibition in comparison to untreated samples 5 days after infestation.

Assay [2] relates to Diabrotica balteata (corn root worm). The assay can be described thus: Example B4: Diabrotica balteata, sprayed maize sprouts. The following applies: 96 h, application rate 200 ppm, L2 larvae, 4 days after infestation, read-out: effect in at least one of the two categories (mortality or growth inhibition). On the procedure:
Maize sprouts, placed on an agar layer in 24-well microtiter plates were treated with aqueous test solutions prepared from 10,000 ppm DMSO stock solutions by spraying. After drying, the plates were infested with L2 larvae (6 to 10 per well). The samples were assessed for mortality and growth inhibition in comparison to untreated samples 4 days after infestation.

In assay [3] the test system is Spodoptera littoralis (Egyptian cotton leaf worm). Description: Example B1: Spodoptera littoralis, sprayed cotton leaf discs. The following applies: foliar, 72 h, application rate 200 ppm, L1 larvae, 3 days after infestation, read-out: control in at least one of the three categories (mortality, anti-feedancy or growth inhibition). How it is done:
Cotton leaf discs were placed on agar in 24-well microtiter plates and sprayed with aqueous test solutions prepared from 10,000 ppm DMSO stock solutions. After drying the leaf discs were infested with five L1 larvae. The samples were assessed for mortality, anti-feedant effect, and growth inhibition in comparison to untreated samples 3 days after infestation. Control of Spodoptera littoralis by a test sample is when at least one of mortality, anti-feedant effect, and growth inhibition is higher than the untreated sample.

The test system is the same in assay [4]. Description: Example B2: Spodoptera littoralis, systemic test via lettuce roots in agar. The following applies: 144 h, application rate 12.5 ppm, Spodoptera eggs, 6 days after infestation, read-out: control in at least one of the three categories (mortality, anti-feedancy or growth inhibition). The text has this:
Test compounds were applied by pipette from 10,000 ppm DMSO stock solutions into 24-well plates and mixed with agar. Lettuce seeds were placed on the agar and the multi well plate was closed by another plate which contains also agar. After 7 days the roots have absorbed the compound and the lettuce has grown into the lid plate. The lettuce leafs were now cut off into the lid plate. Spodoptera eggs were pipetted through a plastic stencil on a humid gel blotting paper and the plate closed with it. The samples were assessed for mortality, anti-feedant effect and growth inhibition in comparison to untreated samples 6 days after infestation.
The following compounds gave an effect of at least 80% control in at least one of the three categories (mortality, anti-feedancy or growth inhibition) at an application rate of 12.5 ppm: P2, P3, P8, P9, P11 and P17, P19, P20, P22, P23, P25, P26, P28, P30, P31, P32, P33, P40, P42, P43, P44, P45, P46, P47, P48, P49, P50, P51, P52, P53, P54, P60 and P61.

Assay [5] concerns Euschistus heros (neotropical brown stink bug). The assay can be described thus: Example B6: Euschistus heros, sprayed soybean leaf. The following applies: 120 h, application rate 200 ppm, N-2 nymphs, 5 days after infestation. The text has this:
Soybean leaf on agar in 24-well microtiter plates were sprayed with aqueous test solutions prepared from 10,000 ppm DMSO stock solutions. After drying the leaf were infested with N-2 nymphs.

In the case of `CCS(=O)(=O)c1ccc(-c2cnc(C(=O)/N=c3\sc(C(F)(F)F)nn3C)c(S(=O)(=O)CC)c2)cc1` [Compound P4], the percent effect (mortality or growth inhibition) at 200 ppm in assay [1] and in assay [2] was at least 80% in each case. Further, the percent control (mortality, anti-feedant effect or growth inhibition) at 200 ppm in assay [3] was at least 80%.

Consider `CCS(=O)(=O)c1cc(-n2ccc(C(F)(F)F)n2)cnc1C(=O)/N=c1\sc(C(F)(F)C(F)(F)F)nn1C` [Compound P9, (N)-3-ethylsulfonyl-N-[3-methyl-5-(1,1,2,2,2-pentafluoroethyl)-1,3,4-thiadiazol-2-ylidene]-5-[3-(trifluoromethyl)pyrazol-1-yl]pyridine-2-carboxamide], for which the percent effect (mortality or growth inhibition) at 200 ppm in assay [1] and in assay [2] was at least 80% in each case. Also, the percent control (mortality, anti-feedant effect or growth inhibition) at 200 ppm in assay [3] was at least 80%. Further, in assay [4], the percent control (mortality, anti-feedant effect or growth inhibition) at 12.5 ppm was at least 80%.

Take `CCSc1cc(-c2ccc(Cl)cc2)cnc1C(=O)/N=c1\sc(C(F)(F)C(F)(F)F)nn1C` [Compound P12]: in assay [2], the percent effect (mortality or growth inhibition) at 200 ppm was at least 80%.

Consider `CCSc1cc(-n2ccc(C(F)(F)F)n2)cnc1C(=O)/N=c1\sc(C(F)(F)F)nn1C` [Compound P13], for which, in assay [2], the percent effect (mortality or growth inhibition) at 200 ppm was at least 80%.

In the case of `CCS(=O)(=O)c1cc(-n2ccc(C(F)(F)F)n2)cnc1C(=O)/N=c1\sc(C(F)(F)F)nn1C` [Compound P14], the percent effect (mortality or growth inhibition) at 200 ppm in assay [1] and in assay [2] was at least 80% each time. Moreover, the percent control (mortality, anti-feedant effect or growth inhibition) at 200 ppm in assay [3] was at least 80%.

Regarding `CCSc1cc(-c2ccc(C(F)(F)F)cc2)cnc1C(=O)N=c1ccc(SC(F)(F)F)cn1C` [Compound P15], the percent effect (mortality or growth inhibition) at 200 ppm in assay [2] is at least 80%.

Turning to `CCS(=O)(=O)c1ccc(-c2ccc(C(F)(F)F)cc2)nc1C(=O)/N=c1\sc(C(F)(F)F)nn1C` [Compound P21, (N)-3-ethylsulfonyl-N-[3-methyl-5-(trifluoromethyl)-1,3,4-thiadiazol-2-ylidene]-6-[4-(trifluoromethyl)phenyl]pyridine-2-carboxamide], in assay [3], the percent control (mortality, anti-feedant effect or growth inhibition) at 200 ppm was at least 80%.

Take `CCS(=O)(=O)c1cc(-c2ccc(OC(F)(F)F)cc2)cnc1C(=O)/N=c1\sc(C(F)(F)F)nn1C` [Compound P22]: the percent effect (mortality or growth inhibition) at 200 ppm in assay [1] and in assay [2] was at least 80% in each case. Besides, the percent control (mortality, anti-feedant effect or growth inhibition) at 200 ppm in assay [3] is at least 80%. For the same molecule, the percent control (mortality, anti-feedant effect or growth inhibition) at 12.5 ppm in assay [4] is at least 80%.

With `CCS(=O)(=O)c1cc(-c2cccc(C#N)c2)cnc1C(=O)/N=c1\sc(C(F)(F)F)nn1C` [Compound P23], the percent effect (mortality or growth inhibition) at 200 ppm in assay [1] and in assay [2] was at least 80% throughout. Further, the mortality at 200 ppm in assay [5] is at least 80%. In assay [3], the percent control (mortality, anti-feedant effect or growth inhibition) at 200 ppm was at least 80%. In addition, the percent control (mortality, anti-feedant effect or growth inhibition) at 12.5 ppm in assay [4] is at least 80%.

For the molecule `CCS(=O)(=O)c1cc(-c2cc(Cl)cc(Cl)c2)cnc1C(=O)/N=c1\sc(C(F)(F)F)nn1C` [Compound P24], the percent control (mortality, anti-feedant effect or growth inhibition) at 200 ppm in assay [3] is at least 80%.

For the molecule `CCS(=O)(=O)c1cc(-c2ccc(F)cc2F)cnc1C(=O)/N=c1\sc(C(F)(F)F)nn1C` [Compound P25], the percent effect (mortality or growth inhibition) at 200 ppm in assay [1] and in assay [2] was at least 80% throughout. This molecule returned a mortality at 200 ppm in assay [5] of at least 80%. The percent control (mortality, anti-feedant effect or growth inhibition) at 200 ppm in assay [3] is at least 80%. The percent control (mortality, anti-feedant effect or growth inhibition) at 12.5 ppm in assay [4] is at least 80%.

Regarding `CCS(=O)(=O)c1cc(-c2cc(Cl)c(F)c(Cl)c2)cnc1C(=O)/N=c1\sc(C(F)(F)F)nn1C` [Compound P27], the percent effect (mortality or growth inhibition) at 200 ppm in assay [1] and in assay [2] was at least 80% each time. Moreover, the percent control (mortality, anti-feedant effect or growth inhibition) at 200 ppm in assay [3] is at least 80%.

On to `CCS(=O)(=O)c1cc(-c2cccc(SC)c2)cnc1C(=O)/N=c1\sc(C(F)(F)F)nn1C` [Compound P30], for which the percent effect (mortality or growth inhibition) at 200 ppm in assay [2] was at least 80%. The percent control (mortality, anti-feedant effect or growth inhibition) at 12.5 ppm in assay [4] was at least 80%.

In the case of `CCS(=O)(=O)c1cc(-c2ccc(Cl)cc2Cl)cnc1C(=O)/N=c1\sc(C(F)(F)F)nn1C` [Compound P34], the percent effect (mortality or growth inhibition) at 200 ppm in assay [1] and in assay [2] was at least 80% throughout. For the same molecule, the mortality at 200 ppm in assay [5] was at least 80%. For the same molecule, in assay [3], the percent control (mortality, anti-feedant effect or growth inhibition) at 200 ppm is at least 80%.

Regarding `CCS(=O)(=O)c1cc(-c2cc(F)cc(F)c2)cnc1C(=O)/N=c1\sc(C(F)(F)F)nn1C` [Compound P35], the percent effect (mortality or growth inhibition) at 200 ppm in assay [1] and in assay [2] was at least 80% throughout. The percent control (mortality, anti-feedant effect or growth inhibition) at 200 ppm in assay [3] was at least 80%.

In the case of `CCS(=O)(=O)c1cc(-c2ccc(Cl)c(Cl)c2)cnc1C(=O)/N=c1\sc(C(F)(F)F)nn1C` [Compound P36], the percent effect (mortality or growth inhibition) at 200 ppm in assay [1] and in assay [2] was at least 80% in each case. For the same molecule, the percent control (mortality, anti-feedant effect or growth inhibition) at 200 ppm in assay [3] is at least 80%.

With `CCS(=O)(=O)c1cc(-c2cccc(C(F)(F)F)c2)cnc1C(=O)/N=c1\sc(C(F)(F)F)nn1C` [Compound P37], the percent effect (mortality or growth inhibition) at 200 ppm in assay [1] and in assay [2] was at least 80% in each case. Also, the percent control (mortality, anti-feedant effect or growth inhibition) at 200 ppm in assay [3] was at least 80%.

Regarding `CCS(=O)(=O)c1cc(-c2ccc(SC)cc2)cnc1C(=O)/N=c1\sc(C(F)(F)F)nn1C` [Compound P38], the percent effect (mortality or growth inhibition) at 200 ppm in assay [1] and in assay [2] was at least 80% each time. For the same molecule, the percent control (mortality, anti-feedant effect or growth inhibition) at 200 ppm in assay [3] is at least 80%.

As to `CCS(=O)(=O)c1cc(-c2cc(Cl)ccn2)cnc1C(=O)/N=c1\sc(C(F)(F)F)nn1C` [Compound P41], the percent effect (mortality or growth inhibition) at 200 ppm in assay [1] and in assay [2] was at least 80% throughout. For the same molecule, the mortality at 200 ppm in assay [5] is at least 80%. Further, the percent control (mortality, anti-feedant effect or growth inhibition) at 200 ppm in assay [3] is at least 80%.

For the molecule `CCS(=O)(=O)c1cc(-c2ncc(C(F)(F)F)s2)cnc1C(=O)/N=c1\sc(C(F)(F)F)nn1C` [Compound P58], the percent effect (mortality or growth inhibition) at 200 ppm in assay [2] was at least 80%. The percent control (mortality, anti-feedant effect or growth inhibition) at 200 ppm in assay [3] is at least 80%.

`CCS(=O)(=O)c1cc(-c2cc(C#N)ccn2)cnc1C(=O)/N=c1\sc(C(F)(F)F)nn1C` [Compound P62]: in assay [1], the percent effect (mortality or growth inhibition) at 200 ppm is at least 80%. Further, the mortality at 200 ppm in assay [5] is at least 80%. Besides, in assay [3], the percent control (mortality, anti-feedant effect or growth inhibition) at 200 ppm is at least 80%.

With `CCS(=O)(=O)c1cc(-c2ncc(Cl)cn2)cnc1C(=O)/N=c1\sc(C(F)(F)F)nn1C` [Compound P65], the percent effect (mortality or growth inhibition) at 200 ppm in assay [1] and in assay [2] was at least 80% in each case. The same molecule displayed a mortality at 200 ppm in assay [5] of at least 80%. Moreover, the percent control (mortality, anti-feedant effect or growth inhibition) at 200 ppm in assay [3] is at least 80%.

For `CCS(=O)(=O)c1cc(-c2cc(F)cc(F)c2)cnc1C(=O)/N=c1\sc(C(F)(F)C(F)(F)F)nn1C` [Compound P67], the percent effect (mortality or growth inhibition) at 200 ppm in assay [1] and in assay [2] was at least 80% each time. The molecule also registered a mortality at 200 ppm in assay [5] of at least 80%.

Turning to `CCS(=O)(=O)c1cc(-c2ncc(C#N)cn2)cnc1C(=O)/N=c1\sc(C(F)(F)F)nn1C` [Compound P68], the percent effect (mortality or growth inhibition) at 200 ppm in assay [1] and in assay [2] was at least 80% in each case. For the same molecule, the mortality at 200 ppm in assay [5] was at least 80%.

In the case of `CCS(=O)(=O)c1cc(-c2ccc(C#N)cn2)cnc1C(=O)/N=c1\sc(C(F)(F)F)nn1C` [Compound P69], the percent effect (mortality or growth inhibition) at 200 ppm in assay [1] and in assay [2] was at least 80% in each case. Besides, in assay [5], the mortality at 200 ppm is at least 80%. For the same molecule, the percent control (mortality, anti-feedant effect or growth inhibition) at 200 ppm in assay [3] is at least 80%.
